Among the data in patent US4481192A, “Acid-protease inhibiting peptide derivatives” (SANOFI, priority 1982, dated 1984) are IC50 values, retold here.

Holding throughout (assay type): biochemical
Assay [1] addresses T1, human plasma renin activity (Homo sapiens, UniProt P00797).
T1 construct: the human plasma contain and the substrate: angiotensinogen, and the enzyme: renin; from tissue; host or cells: pool of human plasma
T1 sequence (P00797 67-406): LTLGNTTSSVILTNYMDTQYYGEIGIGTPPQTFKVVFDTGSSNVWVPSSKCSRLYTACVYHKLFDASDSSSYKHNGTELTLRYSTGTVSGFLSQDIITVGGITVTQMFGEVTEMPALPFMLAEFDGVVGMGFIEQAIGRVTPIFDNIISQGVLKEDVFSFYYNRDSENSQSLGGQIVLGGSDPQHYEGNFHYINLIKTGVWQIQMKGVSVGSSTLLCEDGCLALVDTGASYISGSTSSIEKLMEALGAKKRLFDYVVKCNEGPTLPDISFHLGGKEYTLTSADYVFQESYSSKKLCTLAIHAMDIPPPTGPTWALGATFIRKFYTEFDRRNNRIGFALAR
Description: Inhibition of the human plasma renin activity (P.R.A.). The settings on record: 37° C., pool of human plasma. The procedure:
The angiotensin I released during the reaction (the human plasma contain and the substrate: angiotensinogen, and the enzyme: renin) is measured by radioimmunological determination using a kit.
Of course, an inhibitor of the enzyme for conversion of the PMSF (phenylmethylsulphonyl fluoride) is added to the incubation medium.
Two types of experiments were carried out:
one at pH 6, which is the optimum pH for the enzyme reaction with human renin (maleate buffer, incubation: 30 minutes), and
the other at pH 7.4, which is the physiological pH (phosphate buffer, incubation: 60 minutes).
(§1) A 10^-3 M stock solution of the peptide is made up in a mixture containing equal volumes of a solution A (19 ml of methanol+1 ml of acetic acid) and a solution B (4 ml of methanol+2 ml of sodium hydroxide solution).
(§2) The subsequent dilutions of the peptide are then prepared in the appropriate buffer in accordance with the procedures described above.

A further assay concerns the target porcine pepsin (Sus scrofa, UniProt P00791). In words: Inhibition of porcine pepsin. The settings on record: pH 2, substrate bovine haemoglobin, 37° C. The procedure: The method used is that of TAKAAKI AOYAGI (J. Antibiotics, 24, pages 687-694, 1971). The substrate used is bovine haemoglobin and the enzyme is porcine pepsin.
0.5% strength haemoglobin is hydrolysed with pepsin (1 mcg/ml) at 37° C. in 0.02M KCl-HCl buffer at pH 2.
Preincubation takes place for 3 minutes, followed by incubation for 25 minutes. After precipitation of the proteins with 1.7M perchloric acid, the optical density of the supernatant is determined on a spectrophotometer at 280 nm.
The results are expressed as the percentage inhibition of the maximum optical density obtained in the absence of inhibitor. They are also expressed as an IC50.
as §1, §2

A further assay addresses T2, cathepsin D (Bos taurus, UniProt P80209).
T2 construct: purchased SIGMA C 3138
In words: Enzyme inhibition of cathepsin D. The settings on record: pH 3.2, substrate bovine haemoglobin, 37° C., incubation 30 minutes. The procedure:
The method used is very similar to the pepsin method (T. AOYAGI, 1971).
The substrate used is bovine haemoglobin and the enzyme is cathepsin D of bovine origin (SIGMA, No.C 3138, batch 26 C-8100).
0.5% strength haemoglobin is hydrolysed with cathepsin D (200 μg/ml) at 37° C. in citrate-phosphate buffer at pH 3.2.
The substrate, the inhibitor and the enzyme are incubated for 30 minutes.
After precipitation of the proteins with 1.7M perchloric acid, the optical density of the supernatant is determined on a spectrophotometer at 280 nm.
The results are expressed as the percentage reduction in the maximum optical density obtained in the absence of inhibitor.
as §1, §2

Where [2] appears, read: pH 6, maleate buffer, incubation 30 minutes, read-out: INHIBITION OF HUMAN P.R.A. (IC50) pH 6.
[3] abbreviates: pH 7.4, phosphate buffer, incubation 60 minutes, read-out: INHIBITION OF HUMAN P.R.A. (IC50) pH 7.4.

SMILES strings stand for the structures. Where two headings read alike, the source gives them in different places. Non-standard residues stand in square brackets, D forms with d. Residues, ends and D or L forms follow the SMILES beside them. *: point of attachment. Benzenesulfonyl = O=S(=O)(c1ccccc1)*; Sta = CC(C)C[C@H](N)[C@@H](O)CC(=O)O; Butanoyl(3,3-Me2) = CC(C)(C)CC(=O)*; Isovaleryl = CC(C)CC(=O)*; Cbz = O=C(OCc1ccccc1)*; Boc = CC(C)(C)OC(=O)*

Chain of porcine pepsin (P00791 60-385): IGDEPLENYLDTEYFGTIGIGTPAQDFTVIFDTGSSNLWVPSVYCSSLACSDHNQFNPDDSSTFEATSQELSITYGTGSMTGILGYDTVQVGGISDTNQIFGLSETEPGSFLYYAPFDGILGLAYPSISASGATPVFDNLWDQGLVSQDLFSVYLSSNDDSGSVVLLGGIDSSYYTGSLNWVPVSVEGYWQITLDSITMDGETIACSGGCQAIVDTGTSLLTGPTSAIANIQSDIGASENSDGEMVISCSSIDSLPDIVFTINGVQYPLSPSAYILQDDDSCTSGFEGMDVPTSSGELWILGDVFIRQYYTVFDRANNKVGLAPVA
T2 sequence (P80209 45-390): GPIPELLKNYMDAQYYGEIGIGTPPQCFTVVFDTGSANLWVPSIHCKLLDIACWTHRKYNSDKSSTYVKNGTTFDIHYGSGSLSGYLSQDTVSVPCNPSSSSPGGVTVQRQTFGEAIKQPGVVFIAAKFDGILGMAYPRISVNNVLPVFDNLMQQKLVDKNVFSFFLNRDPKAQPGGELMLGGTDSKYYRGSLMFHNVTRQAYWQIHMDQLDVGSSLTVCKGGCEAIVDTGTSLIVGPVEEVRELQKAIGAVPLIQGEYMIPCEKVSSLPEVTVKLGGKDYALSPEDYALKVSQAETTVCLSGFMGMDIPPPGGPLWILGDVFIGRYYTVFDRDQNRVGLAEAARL

Take `COC(=O)C[C@H](O)[C@H](CC(C)C)NC(=O)[C@H](C)NC(=O)C[C@H](O)[C@H](CC(C)C)NC(=O)[C@H](Cc1ccccc1)NC(=O)[C@H](Cc1ccccc1)NC(=O)OC(C)(C)C` [SR 41331, Boc--Phe--Phe--Sta--Ala--Sta--OMe] (Boc-FF[Sta]A[Sta]-OMe): the half-maximal inhibitory concentration (IC50) (as a rule, the concentration needed to halve the response being measured) was 3.5 nM in assay [1] (setting [2]), 190 nM in assay [1] (setting [3]), 14 nM against porcine pepsin and 180 nM against cathepsin D.

For the compound `COC(=O)C[C@H](O)[C@H](CC(C)C)NC(=O)[C@H](C)NC(=O)C[C@H](O)[C@H](CC(C)C)NC(=O)[C@@H](NC(=O)[C@H](Cc1ccccc1)NC(=O)OCc1ccccc1)C(C)C` [SR 41405, Z--Phe--Val--Sta--Ala--Sta--OMe] (Cbz-FV[Sta]A[Sta]-OMe), the half-inhibitory concentration (IC50) was found to be 65 nM against porcine pepsin and 95 nM against cathepsin D.

Turning to `COC(=O)C[C@H](O)[C@H](CC(C)C)NC(=O)[C@H](C)NC(=O)C[C@H](O)[C@H](CC(C)C)NC(=O)[C@H](Cc1c[nH]cn1)NC(=O)[C@H](Cc1c[nH]c2ccccc12)NC(=O)OC(C)(C)C` [SR 41619, Boc--Trp--His--Sta--Ala--Sta--OMe] (Boc-WH[Sta]A[Sta]-OMe), the IC50 on cathepsin D amounted to 750 nM.

For the compound `COC(=O)C[C@H](O)[C@H](CC(C)C)NC(=O)[C@H](C)NC(=O)C[C@H](O)[C@H](CC(C)C)NC(=O)[C@@H](NC(=O)[C@H](Cc1c[nH]c2ccccc12)NC(=O)OCc1ccccc1)C(C)C` [SR 41485, Z--Trp--Val--Sta--Ala--Sta--OMe] (Cbz-WV[Sta]A[Sta]-OMe), the IC50 in assay [1] (setting [2]) turned out to be 6.75 nM; in assay [1] (setting [3]) it was 150 nM; against porcine pepsin, 29 nM; against cathepsin D, 75 nM.

Consider `COC(=O)C[C@H](O)[C@H](CC(C)C)NC(=O)[C@H](C)NC(=O)C[C@H](O)[C@H](CC(C)C)NC(=O)[C@H](Cc1c[nH]cn1)NC(=O)[C@H](Cc1ccccc1)NC(=O)OC(C)(C)C` [SR 41395, Boc--Phe--His--Sta--Ala--Sta--OMe] (Boc-FH[Sta]A[Sta]-OMe), for which the half-maximal inhibitory concentration (IC50) at porcine pepsin stood at 1300 nM; at cathepsin D, 870 nM.

For the compound `COC(=O)C[C@H](O)[C@H](CC(C)C)NC(=O)[C@H](C)NC(=O)C[C@H](O)[C@H](CC(C)C)NC(=O)[C@H](Cc1ccccc1)NC(=O)[C@H](Cc1ccccc1)NS(=O)(=O)c1ccccc1` [SR 41938, C6 H5 SO2 --Phe--Phe--Sta--Ala--Sta--OCH3] (Benzenesulfonyl-FF[Sta]A[Sta]-OMe), the IC50 was determined as 1.6 nM in assay [1] (setting [2]), 440 nM in assay [1] (setting [3]) and 63 nM at porcine pepsin.

As to `CC(C)C[C@H](NC(=O)[C@H](C)NC(=O)C[C@H](O)[C@H](CC(C)C)NC(=O)[C@H](Cc1c[nH]cn1)NC(=O)[C@H](Cc1ccccc1)NC(=O)OC(C)(C)C)[C@@H](O)CC(=O)O` [SR 41492, Boc--Phe--His--Sta--Ala--Sta--OH] (Boc-FH[Sta]A[Sta]-OH), the half-inhibitory concentration (IC50) was determined as 45 nM in assay [1] (setting [3]), 550 nM against porcine pepsin and 700 nM at cathepsin D.

Turning to `COC(=O)C[C@H](O)[C@H](CC(C)C)NC(=O)[C@H](C)NC(=O)C[C@H](O)[C@H](CC(C)C)NC(=O)[C@H](Cc1ccccc1)NC(=O)[C@H](Cc1ccccc1)NC(=O)CC(C)(C)C` [SR 42256, t--BuAc--Phe--Phe--Sta--Ala--Sta--OMe] ({Butanoyl(3,3-Me2)}-FF[Sta]A[Sta]-OMe), the IC50 in assay [1] (setting [2]) came out at 26 nM; in assay [1] (setting [3]) it was 480 nM; against porcine pepsin it was 27 nM.

With `COC(=O)C[C@H](O)[C@H](CC(C)C)NC(=O)[C@H](C)NC(=O)C[C@H](O)[C@H](CC(C)C)NC(=O)[C@H](Cc1c[nH]c2ccccc12)NC(=O)[C@H](Cc1c[nH]c2ccccc12)NC(=O)OC(C)(C)C` [SR 41376, Boc--Trp--Trp--Sta--Ala--Sta--OMe] (Boc-WW[Sta]A[Sta]-OMe), the half-maximal inhibitory concentration (IC50) at porcine pepsin turned out to be 120 nM; on cathepsin D, 130 nM.

Turning to `COC(=O)C[C@H](O)[C@H](CC(C)C)NC(=O)[C@H](C)NC(=O)C[C@H](O)[C@H](CC(C)C)NC(=O)[C@H](Cc1ccccc1)NC(=O)[C@H](Cc1ccccc1)NC(=O)CC(C)C` [SR 41764, iVa--Phe--Phe--Sta--Ala--Sta--OMe] (Isovaleryl-FF[Sta]A[Sta]-OMe), the 50% inhibitory concentration (IC50) in assay [1] (setting [2]) stood at 12 nM; in assay [1] (setting [3]) it was 310 nM; against porcine pepsin, 42 nM.

As for `CC[C@H](C)[C@H](NC(=O)[C@H](Cc1ccccc1)NC(=O)OCc1ccccc1)C(=O)N[C@@H](CC(C)C)[C@@H](O)CC(=O)N[C@@H](C)C(=O)N[C@@H](CC(C)C)[C@@H](O)CC(=O)OC` [SR 41477, Z--Phe--ILe--Sta--Ala--Sta--OMe] (Cbz-FI[Sta]A[Sta]-OMe), the IC50 in assay [1] (setting [2]) is 35 nM; in assay [1] (setting [3]), 1000 nM; against porcine pepsin it was 38 nM.
